From patent US20230321012A1 (priority 2021, published 2023)
Values joined by “and” are separate entries in the source; they are usually repeats but may differ in a detail not shown here. Equal values may be shown once.

Key:
[1] = tested on: NCI 60-cell line panel; settings: used up to 5 mM, any cell line tested; cited from earlier work
[2] = MALDI-FTICR imaging quantitation of DFMO in whole-body sections of Th-MYCN mice; assay type: in vivo, mouse; settings: for concentration at 96 h: male, Th-MYCN, mouse
Procedure: Male Th-MYCN mice, approximately 5-6 weeks of age, with spontaneous neuroblastoma tumor development commenced treatment according to Table 6.1 when tumors were approximately 5 mm in size. […] Time point: three treatments, cull 24 hours after last treatment in the morning.
Sample Preparation. Animals were euthanized on the morning of the 4th day, after three days of treatment and shaved, and then the carcasses were frozen. Tissues stored at −80° C. were placed inside the cryostat. The temperature of the cryostat was maintained around −20° C. and −40° C. 20-am tissue sections in the sagittal plane going through the left eye were obtained for each carcass. Tissue sections were mounted directly on indium tin oxide (ITO) slides.
Tissue sections on ITO slides were placed in a desiccator for 15 minutes before matrix deposition. An image of the slides was then acquired with a scanner to synchronize positions of the tissue sections with the target of the laser.
Dilution series of the test items were prepared in water from the stock solutions. […] A spot of pure solvent was added as a negative control. Slides were then placed in a desiccator for 15 minutes before MALDI matrix deposition. The control liver tissue consisted of a liver homogenate spiked with an olanzapine standard at 40 g/g of tissue. Sections of the liver homogenate were prepared and added on each ITO slide in order to monitor the signal of the FTICR through the different acquisitions and thus validate the comparison between slides.
For AMXT 1501, 2,5-dihydroxybenzoic acid (DHB) at 40 mg/ml in 1:1 MeOH/H2O with 1% trifluoroacetic acid (TFA) and 25 nM of ^13C4-AMXT 1501 was sprayed on the samples with an automatic sprayer (TM-Sprayer, HTX-Imaging).
The mass spectrometry imaging (MSI) acquisitions were performed using the parameters in Table 6.2 with a data reduction parameter set at 95%. MSI data were acquired and analyzed with FlexImaging 4.1 (Bruker Daltonics), Data Analysis 4.0 (Bruker Daltonics) and Multimaging™ 1.2.2 (ImaBioTech).
Intensity scales representing the molecular signal were adjusted for each image to discriminate the noise from the molecular signal but also to give the best visualization of the signal across the sections. […] Convolution step was performed on the original images using a normalized uniform kernel, which averages the values around a position. The kernel size was manually optimized for the analysis, minimizing the background noise. Based on the MSI data set on the tissue sections and the dilution series, the quantitation of the test items was performed with the IS approach. A correlation between the calibration curve and the signal obtained on the tissues was performed in order to determine the concentration of the test items per histological structure in g/g of tissue and μM.

[3] = tested on: spermine; assay: MALDI-FTICR imaging quantitation of PD marker spermine in whole-body sections of Th-MYCN mice; assay type: in vivo, mouse; settings: for Quantitation of spermine in the whole-body section: Th-MYCN mice, one value per animal
Procedure: (§1) The lower limit of detection based on the calibration curve using labeled spermidine was 0.80 μg/g, while for spermine it was 1.10 μg/g.

[4] = tested on: spermidine; assay: MALDI-FTICR imaging quantitation of PD marker spermidine in whole-body sections of Th-MYCN mice; assay type: in vivo, mouse; settings: for Quantitation of spermidine in the whole-body section: Th-MYCN mice, one value per animal
Procedure: as §1

[5] = Clinical plasma pharmacokinetics of oral DFMO (NCT03536728); assay type: in vivo; settings: human
From the text: Clinical Trial Outline. […] All solid tumor types are eligible for the trial. […] DFMO was delivered orally twice daily in gel capsules.

[6] = COMBO (1% DFMO + AMXT 1501 2.5 mg/kg SC), mice 284, 286, 96 h, 2.5 mg/kg
[7] = DFMO alone 1% in drinking water, mice 049, 082, 96 h
[8] = raw determination, individual Th-MYCN mice, 96 h
[9] = raw determination, treatment group average, 96 h

DFMO in Intestine wall ([2]; COMBO (1% DFMO + AMXT 1501 2.5 mg/kg SC), mice 284, 286, 96 h): 6156 µg/g
DFMO in Cardiac blood [2, 6]: 20.9 µg/g
DFMO in Eye [2, 6]: 49.3 µg/g
DFMO in Intestine contents [2, 6]: 8702 µg/g and 11264 µg/g
DFMO in Liver [2, 6]: 33.0 µg/g
DFMO in Lung [2, 6]: 43.1 µg/g
DFMO in Myocardium [2, 6]: 26.2 µg/g
DFMO in Cardiac blood [2, 7]: 16.5 µg/g
DFMO in Eye [2, 7]: 28.8 µg/g
DFMO in Intestine contents [2, 7]: 3487 µg/g and 2267 µg/g
DFMO in Kidney [2, 7]: 133 µg/g
DFMO in Liver [2, 7]: 28.5 µg/g
DFMO in Lung [2, 7]: 24.8 µg/g
DFMO concentration in tumor ([2]; DFMO only treatment group): 35 μg/g and 192 μM
tumor DFMO levels ([2]; MYCN mice after overnight drinking of 1% DFMO orally): 165 to 192 µM
DFMO concentration in tumor ([2]; combination treatment group): 30 μg/g and 165 μM
tumor DFMO concentration versus Ki ([2]; combination treatment group): 4.2 times
concentration at 96 h ([2]; brown fat, oral, 40 mg/day, DFMO in brown fat): ~25000 ng/g
concentration at 96 h ([2]; brown fat, oral, 1 % in drinking water, DFMO in Brown fat, DFMO alone 1% in drinking water, mice 049, 082, 96 h): 22600 ng/g
concentration at 96 h ([2]; brown fat, sc, 2.5 mg/kg, DFMO in Brown fat, COMBO (1% DFMO + AMXT 1501 2.5 mg/kg SC), mice 284, 286, 96 h): 27500 ng/g
concentration at 96 h ([2]; cardiac blood, oral, 40 mg/day, DFMO in cardiac blood, combination and single administration regimens): 16000 to 35000 ng/g
concentration at 96 h ([2]; cardiac blood, oral, 1 % in drinking water, DFMO in Cardiac blood, DFMO alone 1% in drinking water, mice 049, 082, 96 h): 27800 ng/g
concentration at 96 h ([2]; cardiac blood, sc, 2.5 mg/kg, DFMO in Cardiac blood, COMBO (1% DFMO + AMXT 1501 2.5 mg/kg SC), mice 284, 286, 96 h): 35400 ng/g
concentration at 96 h ([2]; eye, oral, 1 % in drinking water, DFMO in Eye, DFMO alone 1% in drinking water, mice 049, 082, 96 h): 33000 ng/g
concentration at 96 h ([2]; eye, sc, 2.5 mg/kg, DFMO in Eye, COMBO (1% DFMO + AMXT 1501 2.5 mg/kg SC), mice 284, 286, 96 h): 92100 ng/g
concentration at 96 h ([2]; intestine wall, oral, 1 % in drinking water, DFMO in Intestine wall, DFMO alone 1% in drinking water, mice 049, 082, 96 h): 803000 ng/g
concentration at 96 h ([2]; kidney, oral, 1 % in drinking water, DFMO in Kidney, DFMO alone 1% in drinking water, mice 049, 082, 96 h): 77600 ng/g
concentration at 96 h ([2]; liver, oral, 1 % in drinking water, DFMO in Liver, DFMO alone 1% in drinking water, mice 049, 082, 96 h): 36100 ng/g
concentration at 96 h ([2]; liver, sc, 2.5 mg/kg, DFMO in Liver, COMBO (1% DFMO + AMXT 1501 2.5 mg/kg SC), mice 284, 286, 96 h): 44700 ng/g
concentration at 96 h ([2]; lung, oral, 1 % in drinking water, DFMO in Lung, DFMO alone 1% in drinking water, mice 049, 082, 96 h): 48700 ng/g
concentration at 96 h ([2]; lung, sc, 2.5 mg/kg, DFMO in Lung, COMBO (1% DFMO + AMXT 1501 2.5 mg/kg SC), mice 284, 286, 96 h): 64700 ng/g
concentration at 96 h ([2]; myocardium, oral, 1 % in drinking water, DFMO in Myocardium, DFMO alone 1% in drinking water, mice 049, 082, 96 h): 10000 ng/g
concentration at 96 h ([2]; myocardium, sc, 2.5 mg/kg, DFMO in Myocardium, COMBO (1% DFMO + AMXT 1501 2.5 mg/kg SC), mice 284, 286, 96 h): 28500 ng/g
concentration at 96 h ([2]; oral, 40 mg/day, DFMO in eye, kidney, liver, lung, testis and thymus, range from testis to eye, both treatments): 14000 to 92000 ng/g
concentration at 96 h ([2]; pancreas, sc, 2.5 mg/kg, DFMO in Pancreas, COMBO (1% DFMO + AMXT 1501 2.5 mg/kg SC), mice 284, 286, 96 h): 83000 ng/g
concentration at 96 h ([2]; spleen, sc, 2.5 mg/kg, DFMO in Spleen, COMBO (1% DFMO + AMXT 1501 2.5 mg/kg SC), mice 284, 286, 96 h): 83600 ng/g
concentration at 96 h ([2]; stomach contents, sc, 2.5 mg/kg, DFMO in Stomach contents, COMBO (1% DFMO + AMXT 1501 2.5 mg/kg SC), mice 284, 286, 96 h): 111000 ng/g
concentration at 96 h ([2]; stomach wall, oral, 1 % in drinking water, DFMO in Stomach wall, DFMO alone 1% in drinking water, mice 049, 082, 96 h): 216000 ng/g
concentration at 96 h ([2]; stomach wall, sc, 2.5 mg/kg, DFMO in Stomach wall, COMBO (1% DFMO + AMXT 1501 2.5 mg/kg SC), mice 284, 286, 96 h): 44500 ng/g
concentration at 96 h ([2]; testis, oral, 1 % in drinking water, DFMO in Testis, DFMO alone 1% in drinking water, mice 049, 082, 96 h): 14500 ng/g
concentration at 96 h ([2]; testis, sc, 2.5 mg/kg, DFMO in Testis, COMBO (1% DFMO + AMXT 1501 2.5 mg/kg SC), mice 284, 286, 96 h): 48200 ng/g
concentration at 96 h ([2]; thymus, oral, 1 % in drinking water, DFMO in Thymus, DFMO alone 1% in drinking water, mice 049, 082, 96 h): 20900 ng/g
concentration at 96 h ([2]; thymus, sc, 2.5 mg/kg, DFMO in Thymus, COMBO (1% DFMO + AMXT 1501 2.5 mg/kg SC), mice 284, 286, 96 h): 26700 ng/g
concentration at 96 h ([2]; tumor, oral, 1 % in drinking water, DFMO in Tumor, DFMO alone 1% in drinking water, mice 049, 082, 96 h): 35100 ng/g
concentration at 96 h ([2]; tumor, sc, 2.5 mg/kg, DFMO in Tumor, COMBO (1% DFMO + AMXT 1501 2.5 mg/kg SC), mice 284, 286, 96 h): 30400 ng/g
AUC ([5]; 500 mg/day split BID, Day 28, n=14): 11400 ng·h/mL
Cmax ([5]; 7-day repeat dosing of 1000 mg split BID, Cohort 3, n=6): 4440 ng/mL
SMILES: NCCCC(N)(C(=O)O)C(F)F (stereo not shown) [DFMO, difluoromethylornithine]
growth inhibitory effect [1]: no growth inhibitory effect
Quantitation of spermine in the whole-body section ([3]; Eye): 16.03 µM and 8.07 µM
Quantitation of spermine in the whole-body section ([3]; Intestine contents): 2.46 µM
Quantitation of spermine in the whole-body section ([3]; Intestine wall): 3.44 µM
Quantitation of spermine in the whole-body section ([3]; Kidney): 4.69 µM
Quantitation of spermine in the whole-body section ([3]; Liver): 2.14 µM
Quantitation of spermine in the whole-body section ([3]; Lung): 4.78 µM and 7.91 µM
Quantitation of spermine in the whole-body section ([3]; Myocardium): BLOQ
Quantitation of spermine in the whole-body section ([3]; Stomach contents): 0.00 µM
Quantitation of spermine in the whole-body section ([3]; Stomach wall): BLOQ
Quantitation of spermine in the whole-body section ([3]; Testis): 7.40 µM
Quantitation of spermine in the whole-body section ([3]; Thymas): BLOQ
Quantitation of spermine in the whole-body section ([3]; Tumor): 6.03 µM
spermine in lung ([3]; group average): 6.35 µM
spermine level in tumor, comparison of groups ([3]; mouse, in vivo): highest levels
Spermine concentration in tumor, Value [3, 8]: BLOD and 6.03 μM
Spermine concentration in tumor, Average [3, 9]: 6.03 µM
spermine in eye ([3]; vehicle 17.6 μM): 12 µM
Quantitation of spermidine in the whole-body section ([4]; Brain): 1.86 µM
Quantitation of spermidine in the whole-body section ([4]; Brown fat): 3.80 µM
Quantitation of spermidine in the whole-body section ([4]; Cardiac blood): 0.00 µM
Quantitation of spermidine in the whole-body section ([4]; Eye): 6.11 µM and 5.24 µM
Quantitation of spermidine in the whole-body section ([4]; Intestine contents): 43.17 µM and 5.61 µM
Quantitation of spermidine in the whole-body section ([4]; Intestine wall): 4.56 µM
Quantitation of spermidine in the whole-body section ([4]; Kidney): 1.35 µM
Quantitation of spermidine in the whole-body section ([4]; Liver): 6.67 µM
Quantitation of spermidine in the whole-body section ([4]; Lung): 4.53 µM and 2.64 µM
Quantitation of spermidine in the whole-body section ([4]; Stomach wall): 1.13 µM
Quantitation of spermidine in the whole-body section ([4]; Testis): 1.97 µM
Quantitation of spermidine in the whole-body section ([4]; Thymus): 6.00 µM
Quantitation of spermidine in the whole-body section ([4]; Tumor): 5.39 µM
spermidine level in tumor, comparison of groups ([4]; mouse, in vivo): highest levels
Spermidine concentration in tumor, Values [4, 8]: BLOD and 5.39 μM
Spermidine concentration in tumor, Average [4, 9]: 5.39 µM
spermidine in eye ([4]; vehicle 9.14 μM): 6 µM
